Experimental data taken from patent US20250051279A1, “TRYPTAMINE COMPOSITIONS AND METHODS” (priority 2022, published 2025).

Legend:
[1] = Dynamic vapor sorption (DVS) hygroscopicity; assay type: physicochemical; design: key to Hygroscopicity: “+/+/+” indicates most favorable; “+/+” indicates more favorable; “+” indicates favorable; “−” indicates unfavorable; “−/−” indicates more unfavorable; “−/−/−” indicates most unfavorable; settings: for physical form conversion throughout the DVS cycle: DVS cycle 0-95% RH; for hygroscopicity (in words): DVS isotherm; for acquisition of water on exposure to elevated relative humidities: >95% RH
Text: Pharmaceutically acceptable salts of the compound of Formula (I) suitable for pharmaceutical manufacture may also be characterized as non-hygroscopic or slightly hygroscopic, preferably non-hygroscopic. The hygroscopicity may be measured herein by performing a moisture adsorption-desorption isotherm using a dynamic vapor sorption (DVS) analyzer with a starting exposure of 30% relative humidity (RH), increasing humidity up to 95% RH, decreasing humidity to 0%, and finally increasing the humidity back to the starting 30% RH, and classified according to the following: • non-hygroscopic: <0.2%; slightly hygroscopic: ≥0.2% and <2%; hygroscopic: ≥2% and <15%; very hygroscopic: ≥15%; deliquescent: sufficient water is absorbed to form a liquid; all values measured as weight increase (w/w due to acquisition of water) at >95% RH and 25° C.
Dynamic vapor sorption-desorption experiments were carried out using a DVS Resolution instrument supplied by Surface Measurement Systems. Data were acquired using the following acquisition parameters: • Solvent; Water • Start relative humidity; 30% RH • Relative humidity cycle (% RH); 30, 40, 50, 60, 70, 80, 90, 95, 90, 80, 70, 60, 50, 40, 30, 20, 10, 0, 10, 20, 30 • Equilibrium condition (dm/dt); 0.002%/minute • Equilibrium condition window; 10 minutes • Minimum stage period; 5 minutes • Maximum stage period; 360 minutes • Temperature; 25° C. • Carrier gas; Nitrogen • Carrier gas flow rate; 200 mL·min^−1 (Total)
Typically, 20-50 mg of the test substance was mounted in a gauze basket and transferred to the sample port. Excess static electricity was removed throughout sample handling and sample mounting using a ^210Po static eliminator. Instrument performance checks were completed using traceable samples of sodium chloride and lithium chloride. For selected samples, the cycle was repeated using the same sample to assess any change in physical form induced on exposure to elevated relative humidity.

[2] = Salt form assessment (crystallization propensity, DSC/XRPD physical properties, appearance, counter-ion acceptability, salt suitability); assay type: physicochemical; design: key: “+/+/+” indicates most favorable; “+/+” indicates more favorable; “+” indicates favorable; “−” indicates unfavorable; “−/−” indicates more unfavorable; “−/−/−” indicates most unfavorable; settings: for Physical properties (crystallinity, melt, enthalpy, polymorph tendency): DSC, XRPD; for Crystallization propensity: crystallization from ethanol
Experimental: Samples were analyzed by differential scanning calorimetry (DSC), X-ray powder diffraction (XRPD), and dynamic vapor sorption (DVS). In addition, the appearance and visual properties of each sample were assessed, in addition to propensity for crystallization.
A summary of the data obtained from the analyses of the individual salt forms of Examples 1-9 are presented in Table 10, with advantageous and detrimental properties summarized using the following nomenclature: “+/+/+” indicates most favorable; “+/+” indicates more favorable; “+” indicates favorable; “−” indicates unfavorable; “−/−” indicates more unfavorable; “−/−/−” indicates most unfavorable.

[3] = oral; cited from earlier work
[4] = prolonged storage; cited from earlier work

| Compound | Hygroscopicity ([1]; DVS) | physical form conversion throughout the DVS cycle [1] | water uptake at relative humidities exceeding 80% ([1]; DVS, >80% RH) | equilibrium water content ([1]; DVS, typical ambient relative humidities) | Appearance [2] | Physical properties (crystallinity, melt, enthalpy, polymorph tendency) [2] | Crystallization propensity [2] | hygroscopicity (in words) [1] | acquisition of water on exposure to elevated relative humidities ([1]; DVS, 25° C.) | behavior at elevated relative humidities ([1]; DVS) | orally active dose (lowest) [3] | very strong psychedelic doses [3] | storage sensitivity [4] | water uptake ([1]; DVS, 25° C., on exposure to 95% RH) |
| --- | --- | --- | --- | --- | --- | --- | --- | --- | --- | --- | --- | --- | --- | --- |
| CN(C)CCc1c[nH]c2ccccc12 [Example 7, 2-(1H-indol-3-yl)-N,N-dimethylethan-1-amine] | −/−/− | a phase change was induced | excessive | > 3% | − | −/− | − |  |  |  |  |  |  |  |
| CN(C)CCc1c[nH]c2ccccc12 [Example 1, 2-(1H-indol-3-yl)-N,N-dimethylethan-1-amine] | +/+/+ | no evidence of physical form conversion |  |  | +/+/+ | +/+/+ | +/+/+ | no significant hygroscopicity | < 0.2 % w/w |  |  |  |  |  |
| CN(C)CCc1c[nH]c2ccccc12 [Example 9, 2-(1H-indol-3-yl)-N,N-dimethylethan-1-amine] | −/−/− |  |  |  | − | −/− | − |  |  |  |  |  |  |  |
| CN(C)CCc1c[nH]c2ccccc12 [Example 3, 2-(1H-indol-3-yl)-N,N-dimethylethan-1-amine] | +/+/+ | no evidence of physical form conversion |  |  | +/+/+ | +/+/+ | + | no significant hygroscopicity | < 0.06 % w/w |  |  |  |  |  |
| CN(C)CCc1c[nH]c2ccccc12 [Example 8, 2-(1H-indol-3-yl)-N,N-dimethylethan-1-amine] | −/−/− |  |  |  | − | −/− | − |  |  | deliquesce |  |  |  |  |
| COc1cc(CCNCc2ccccc2OC)c(OC)cc1Cl [2C—C-NBOMe, 2-(4-Chloro-2,5-dimethoxyphenyl)-N-[(2-methoxyphenyl)methyl]ethan-1-amine] |  |  |  |  |  |  |  |  |  |  | ≥ 25 µg | 500 to 700 µg |  |  |
| CN(C)CCc1c[nH]c2ccccc12 [Example 6, 2-(1H-indol-3-yl)-N,N-dimethylethan-1-amine] | −/−/− |  |  |  | +/+/+ | +/+ | − |  |  | deliquesce |  |  |  |  |
| CN(C)CCc1c[nH]c2ccccc12 [Example I-1, 2-(1H-indol-3-yl)-N,N-dimethylethan-1-amine] |  |  |  |  |  |  |  |  |  |  |  |  | sensitive to oxygen, heat, and light |  |
| CN(C)CCc1c[nH]c2ccccc12 [Example 2, 2-(1H-indol-3-yl)-N,N-dimethylethan-1-amine] | +/+/+ | no evidence of physical form conversion |  |  | +/+/+ | +/+/+ | +/+/+ | no significant hygroscopicity | < 0.05 % w/w |  |  |  |  |  |
| CN(C)CCc1c[nH]c2ccccc12 [Example 5, 2-(1H-indol-3-yl)-N,N-dimethylethan-1-amine] | − |  |  |  | +/+ | +/+ | + |  |  |  |  |  |  | approximately 3 % w/w |
| CN(C)CCc1c[nH]c2ccccc12 [Example 4, 2-(1H-indol-3-yl)-N,N-dimethylethan-1-amine] | +/+/+ | no evidence of physical form conversion |  |  | +/+/+ | +/+/+ | − | no significant hygroscopicity | < 0.5 % w/w |  |  |  |  |  |
